The text below walks through data of patent publication US4895834A, “Renin inhibitors III” (Warner-Lambert Company, priority 1987, dated 1990).

pIC50: −log10 of the molar value.

In one experiment the target is T1, renin (Homo sapiens, UniProt P00797).
T1 sequence (P00797 67-406): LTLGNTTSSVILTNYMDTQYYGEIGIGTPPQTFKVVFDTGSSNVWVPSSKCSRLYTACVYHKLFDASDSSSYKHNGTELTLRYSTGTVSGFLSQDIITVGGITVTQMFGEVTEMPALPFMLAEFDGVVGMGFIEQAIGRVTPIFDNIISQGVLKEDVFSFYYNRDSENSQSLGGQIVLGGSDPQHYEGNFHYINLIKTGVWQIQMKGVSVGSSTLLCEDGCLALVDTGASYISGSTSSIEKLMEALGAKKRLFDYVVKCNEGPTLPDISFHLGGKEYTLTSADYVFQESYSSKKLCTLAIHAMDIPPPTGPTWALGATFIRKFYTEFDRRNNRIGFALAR
The experiment in a line: in vitro renin inhibitory activity, radioimmunoassay for angiotensin I. It counts as biochemical. Particulars: molar concentration causing 50% inhibition of renin activity; renin incubated two hours at 37° with angiotensinogen. Here is the method:
The effectiveness of the aforementioned compound is determined by a test for in vitro renin inhibitory activity. This activity is determined by a standard radioimmunoassay for angiotensin I. In this assay the enzyme, renin, incubated for two hours at 37° in the presence of a substrate, angiotensinogen, generates the product, angiotensin I. Test compounds are added to the incubation mixture. Relative activity is reported as the IC50, which is the molar concentration of test compound causing a 50% inhibition of the renin activity.
The pIC50 is −log10 of the IC50, conventionally taken in molar units. High values mean a small IC50, low ones a large IC50. As to `CC(C)C[C@H](NC(=O)[C@H](Cc1c[nH]cn1)NC(=O)C(Cc1cccc2ccccc12)Cc1cccc2ccccc12)[C@@H](O)CC(=O)NCc1cccc(CNC(=O)OCc2ccccc2)c1` [Example 22], the pIC50 was 5.40.
In turn, `CC(C)C[C@H](NC(=O)C[C@H](O)[C@H](CC(C)C)NC(=O)[C@H](Cc1c[nH]cn1)NC(=O)C(Cc1ccccc1)SCc1ccccc1)C(=O)NCc1ccccc1` (some centres unmarked) [Example 11] showed a pIC50 of 5.66.
Consider `CC(C)C[C@H](NC(=O)[C@H](Cc1c[nH]cn1)NC(=O)C(Cc1cccc2ccccc12)Cc1cccc2ccccc12)[C@@H](O)CC(=O)NCC(O)CSC(C)C` (some centres unmarked) [Example 3, DNMA-HIS-STA-NHCH2 CH(OH)CH2 SCH(CH3)2], for which the pIC50 was 6.66.
Compound `CC(C)C[C@H](NC(=O)[C@H](Cc1c[nH]cn1)NC(=O)C(Cc1cccc2ccccc12)Cc1cccc2ccccc12)[C@@H](O)CC(=O)NCC(O)CS(=O)(=O)C(C)C` (some centres unmarked) [Example 4, DNMA-HIS-STA-NHCH2 CH(OH)CH2 SO2 CH(CH3)2] had a pIC50 of 7.09.
The compound `CC(C)C[C@H](NC(=O)C[C@H](O)[C@H](CC1CCCCC1)NC(=O)[C@H](CC(=O)O)NC(=O)C(Cc1cccc2ccccc12)Cc1cccc2ccccc12)C(=O)NCc1ccccc1` [Example 17, DNMA-ASP-CYSTA-LEU-NHCH2 Ph] had a pIC50 of 6.01.
Still for that read-out and setting: the figure for `CC(C)C[C@H](NC(=O)C[C@H](O)[C@H](CC(C)C)NC(=O)[C@H](Cc1cnc[nH]1)N(C)C(=O)C(Cc1cccc2ccccc12)Cc1cccc2ccccc12)C(=O)NCc1ccccc1` [Example 20, DNMA-(N-MeHIS)-STA-LEU-NHCH2 Ph] is 5.39; for `CC[C@H](C)CNC(=O)C[C@H](O)[C@H](CC(C)C)NC(=O)[C@H](Cc1c[nH]cn1)NC(=O)C(Cc1cccc2ccccc12)C(=O)OC(C)(C)C` (some centres unmarked) [Example 2] it is 6.25.

Another experiment deals with renin maintained blood pressure (Hog renin infused). Briefly: lowering renin maintained blood pressure in the anesthetized, vagotomized, ganglionic-blocked rat (hog renin infused). It counts as in vivo. Particulars: 1 mg/kg IV. The protocol: The effectiveness of the aforementioned compounds in vivo is determined by their effect on lowering renin maintained blood pressure in the anesthetized, vagotomized, ganglionic-blocked rat.
After the blood pressure has stabilized, 1.25 mg/kg IV mecamylamine is added to produce ganglionic blockade. Hog renin is then infused to bring the blood pressure to a level observed before vagotomy and ganglionic blockade. Test compound is then administered IV and the drop in blood pressure is noted.
The compound was administered at as dose of 1 mg/kg.
Consider `CC(C)C[C@H](NC(=O)C[C@H](O)[C@H](CC(C)C)NC(=O)[C@H](Cc1c[nH]cn1)NC(=O)C(Cc1cccc2ccccc12)Cc1cccc2ccccc12)C(=O)NCc1ccccc1` [Example 1, DNMA-HIS-STA-LEU-NHCH2 Ph], for which the “Percent Decrease of Blood Pressure” value came to 65%.
